This assay concerns breast cancer. Put plainly: Retrospective clinical study of adjuvant tamoxifen treatment of breast cancer. Format: in vivo, human. As to conditions: overexpression of PPARBP. From the text:
In particular, elevated levels of the PPARBP gene and protein and the integrity of the telomeric hormone receptor region of the 17q21 ARCHEON, bearing THRA, NR1D1 and RARA, or its related regions on the other ARCHEONs are of importance for these therapeutic regimens. […] Overexpression of PPARBP enables activity of estrogen and progesteron receptors irrespective of a bound ligand. Therefore, the deregulation of the PPARBP results in the activity of these hormone receptors in the absence of the hormones and even in the presence of anti-hormones and thereby circumvents the anti tumor effect of anti hormonal strategies resulting in resistance of PPARBP overexpressing cells. In addition overexpression of hormone receptors other than estrogen receptor in tumor cells affects activity of estrogen or the respective anti-hormones by competition for dimerization partners, such as RXR, or transcriptional activator or repressor genes, such as CBP or NCOR. With regard to tamoxifen treatment this clearly diminishes the effect of the anti-hormone, as the pool of the transcriptional cofactors is reduced for the classical mode of action of tamoxifen within the nucleus.

With `CC/C(=C(\c1ccccc1)c1ccc(OCCN(C)C)cc1)c1ccccc1` [tamoxifen], the “overall survival of patients receiving adjuvant tamoxifen” value is reported as “has impact on the overall survival”.
